Test results published in patent publication US10670605B2, “Cysteine reactive probes and uses thereof” (The Scripps Research Institute, priority 2015, dated 2020).

Assays:
Experiment in all cases: Competitive isoTOP-ABPP in situ (fragment-treated cells)
Format in all cases: cell-based
[1] = biological target: T1, cysteines in MDA-MB-231 and Ramos cells (Homo sapiens, UniProt O15294); details: 200 μM, insitu
T1 sequence (O15294 1-1046): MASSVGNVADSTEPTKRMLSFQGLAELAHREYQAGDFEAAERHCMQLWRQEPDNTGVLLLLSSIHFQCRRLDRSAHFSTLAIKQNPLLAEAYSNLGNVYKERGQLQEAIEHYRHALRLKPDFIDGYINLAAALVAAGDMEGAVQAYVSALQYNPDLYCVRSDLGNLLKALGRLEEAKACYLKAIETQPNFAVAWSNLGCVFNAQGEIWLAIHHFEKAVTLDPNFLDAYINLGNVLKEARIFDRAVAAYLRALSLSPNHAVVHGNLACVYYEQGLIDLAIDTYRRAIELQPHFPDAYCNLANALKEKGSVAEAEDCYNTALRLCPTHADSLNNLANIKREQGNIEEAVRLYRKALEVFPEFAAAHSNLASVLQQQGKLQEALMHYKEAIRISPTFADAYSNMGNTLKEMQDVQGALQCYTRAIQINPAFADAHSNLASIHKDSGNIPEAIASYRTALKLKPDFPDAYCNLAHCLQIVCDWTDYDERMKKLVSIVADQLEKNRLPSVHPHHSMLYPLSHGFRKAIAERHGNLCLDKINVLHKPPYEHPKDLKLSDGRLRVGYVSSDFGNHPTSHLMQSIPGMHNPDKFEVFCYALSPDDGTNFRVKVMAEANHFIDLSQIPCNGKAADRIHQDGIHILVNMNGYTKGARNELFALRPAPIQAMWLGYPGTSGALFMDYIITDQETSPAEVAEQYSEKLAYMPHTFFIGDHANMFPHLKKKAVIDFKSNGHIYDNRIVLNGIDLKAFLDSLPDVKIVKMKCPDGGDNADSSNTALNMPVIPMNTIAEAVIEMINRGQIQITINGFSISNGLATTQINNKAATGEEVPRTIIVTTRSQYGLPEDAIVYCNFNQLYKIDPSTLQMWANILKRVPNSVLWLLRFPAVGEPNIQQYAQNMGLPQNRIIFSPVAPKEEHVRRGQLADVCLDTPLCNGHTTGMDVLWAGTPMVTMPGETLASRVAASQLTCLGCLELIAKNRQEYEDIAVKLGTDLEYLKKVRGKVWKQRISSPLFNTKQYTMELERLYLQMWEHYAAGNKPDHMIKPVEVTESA

[2] = biological target: T2, cysteines in MDA-MB-231 and Ramos cells (Homo sapiens, UniProt Q99439); details: 200 μM, insitu
T2 sequence (Q99439 1-309): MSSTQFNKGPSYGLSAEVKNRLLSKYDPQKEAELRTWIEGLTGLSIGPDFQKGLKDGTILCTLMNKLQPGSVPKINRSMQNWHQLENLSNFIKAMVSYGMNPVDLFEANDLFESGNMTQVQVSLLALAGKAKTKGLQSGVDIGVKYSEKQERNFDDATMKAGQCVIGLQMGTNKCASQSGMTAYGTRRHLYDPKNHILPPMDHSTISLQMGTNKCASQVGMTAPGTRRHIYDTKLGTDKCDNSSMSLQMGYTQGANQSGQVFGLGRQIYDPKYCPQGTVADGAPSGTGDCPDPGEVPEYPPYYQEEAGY

[3] = biological target: T3, cysteines in MDA-MB-231 and Ramos cells (Homo sapiens, UniProt O95336); details: 200 μM, insitu
T3 sequence (O95336 1-258): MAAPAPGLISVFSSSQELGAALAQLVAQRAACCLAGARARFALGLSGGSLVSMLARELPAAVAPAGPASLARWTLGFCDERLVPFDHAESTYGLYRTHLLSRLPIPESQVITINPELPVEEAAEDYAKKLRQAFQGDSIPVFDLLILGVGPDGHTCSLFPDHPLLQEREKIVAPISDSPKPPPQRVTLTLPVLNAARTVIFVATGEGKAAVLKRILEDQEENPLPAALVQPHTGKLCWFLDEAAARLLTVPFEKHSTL

[4] = biological target: cysteines in MDA-MB-231 and Ramos cells (Homo sapiens, UniProt P04406); details: 200 μM, insitu
[5] = biological target: T4, cysteines in MDA-MB-231 and Ramos cells (Homo sapiens, UniProt P11216); details: 200 μM, insitu, 231
T4 sequence (P11216 1-843): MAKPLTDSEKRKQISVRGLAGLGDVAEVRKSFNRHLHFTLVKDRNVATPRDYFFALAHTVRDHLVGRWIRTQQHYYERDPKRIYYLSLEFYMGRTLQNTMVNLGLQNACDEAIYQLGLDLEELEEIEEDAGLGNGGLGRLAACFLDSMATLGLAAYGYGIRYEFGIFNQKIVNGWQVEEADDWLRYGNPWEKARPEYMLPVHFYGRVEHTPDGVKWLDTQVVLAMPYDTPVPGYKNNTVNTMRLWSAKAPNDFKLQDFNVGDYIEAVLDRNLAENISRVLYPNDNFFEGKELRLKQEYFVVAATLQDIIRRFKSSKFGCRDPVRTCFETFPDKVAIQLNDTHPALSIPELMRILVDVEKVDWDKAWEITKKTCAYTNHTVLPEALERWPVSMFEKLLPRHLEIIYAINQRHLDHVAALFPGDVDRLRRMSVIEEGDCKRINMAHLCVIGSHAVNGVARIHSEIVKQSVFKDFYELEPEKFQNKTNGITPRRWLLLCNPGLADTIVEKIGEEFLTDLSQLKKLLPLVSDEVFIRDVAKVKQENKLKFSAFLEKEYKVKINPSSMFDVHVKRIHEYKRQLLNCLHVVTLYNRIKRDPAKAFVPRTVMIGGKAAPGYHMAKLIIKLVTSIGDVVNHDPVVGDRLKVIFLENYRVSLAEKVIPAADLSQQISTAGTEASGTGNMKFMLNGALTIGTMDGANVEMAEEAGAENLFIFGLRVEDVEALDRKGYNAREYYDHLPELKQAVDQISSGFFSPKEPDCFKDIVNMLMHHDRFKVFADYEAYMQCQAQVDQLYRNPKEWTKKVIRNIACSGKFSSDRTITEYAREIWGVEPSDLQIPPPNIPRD

[6] = biological target: T5, cysteines in MDA-MB-231 and Ramos cells (Homo sapiens, UniProt Q9HAV7); details: 200 μM, insitu
T5 sequence (Q9HAV7 28-217): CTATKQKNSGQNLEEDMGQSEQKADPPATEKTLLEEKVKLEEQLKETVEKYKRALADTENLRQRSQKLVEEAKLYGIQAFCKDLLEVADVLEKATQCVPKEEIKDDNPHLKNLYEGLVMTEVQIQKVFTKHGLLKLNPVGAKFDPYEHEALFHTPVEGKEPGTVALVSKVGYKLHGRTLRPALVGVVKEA

Chain of cysteines in MDA-MB-231 and Ramos cells (Homo sapiens, UniProt P04406) (P04406 whole entry): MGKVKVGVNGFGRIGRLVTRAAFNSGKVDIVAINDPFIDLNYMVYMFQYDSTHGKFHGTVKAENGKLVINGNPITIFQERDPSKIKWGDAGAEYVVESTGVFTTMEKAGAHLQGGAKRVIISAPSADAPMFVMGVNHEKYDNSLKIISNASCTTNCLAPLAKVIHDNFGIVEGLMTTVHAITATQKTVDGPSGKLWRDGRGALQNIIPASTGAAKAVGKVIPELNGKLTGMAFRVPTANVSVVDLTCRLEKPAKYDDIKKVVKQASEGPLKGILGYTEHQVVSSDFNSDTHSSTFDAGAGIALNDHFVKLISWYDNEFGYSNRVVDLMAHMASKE

isoTOP-ABPP ratio O15294_C758 [1]; 231	isoTOP-ABPP ratio Q99439_C164 [2]; 231	isoTOP-ABPP ratio Q99439_C164 ([2]; ramos)	isoTOP-ABPP ratio O95336_C32 [3]; 231	isoTOP-ABPP ratio O95336_C32 ([3]; ramos)	isoTOP-ABPP ratio P04406_C152 [4]; 231	isoTOP-ABPP ratio P04406_C152 ([4]; ramos)	isoTOP-ABPP ratio P11216_C326 [5]	isoTOP-ABPP ratio Q9HAV7_C124 [6]; 231	isoTOP-ABPP ratio Q9HAV7_C124 ([6]; ramos)	isoTOP-ABPP ratio O15294_C620 ([1]; ramos)	isoTOP-ABPP ratio O15294_C620 [1]; 231	SMILES
1.0	0.9	1.3	1.6	2.2	0.9	0.9	1.3					O=C(CCl)NCCc1c[nH]c2ccccc12 [compound 13]
1.0			0.5		0.5		0.7	0.6				CC(C)CCOCCNC(=O)CCl [compound 27]
1.0	0.9				0.8							COc1ccccc1OCCNC(=O)CCl [compound 28]
		1.0		3.0		1.2			1.0	2.6		O=C(CCl)N1CCN(CC(=O)N2CCOCC2)CC1 [compound 29]
	0.7	1.3		1.7	0.8	1.0	0.5				1.1	C=CC(=O)N(Cc1cccnc1)c1cc(C(F)(F)F)cc(C(F)(F)F)c1 [compound 31]
	1.5		2.8		0.9		1.2	1.0				C=CC(=O)Nc1cc(F)c(N2CCN(C(=O)OC(C)(C)C)CC2)c(F)c1 [compound 38]
2.9	1.8				20.0		5.3	2.1				CC1CCc2ccccc2N1C(=O)CCl (centres unmarked) [compound 45]
1.1					1.0		0.8					O=C(CCl)Nc1cccc2ncccc12 [compound 51]
